Results as given in BigSolDB 2.1.

With `O=C1OC(=O)c2ccc(Br)c3cccc1c23` the solubility (mole fraction) (in acetic acid, 278.15 K) was 0.000263, the solubility (mole fraction) (in acetic acid, 283.15 K) was 0.000316 and the solubility (mole fraction) (in acetic acid, 288.15 K) was 0.000382. It also gave a solubility (mole fraction) (in acetic acid, 293.15 K) of 0.00046, a solubility (mole fraction) (in acetic acid, 298.15 K) of 0.000565 and a solubility (mole fraction) (in acetic acid, 303.15 K) of 0.000666. The solubility (mole fraction) (in acetone, 278.15 K) was 0.001, the solubility (mole fraction) (in acetone, 283.15 K) was 0.00119 and the solubility (mole fraction) (in acetone, 288.15 K) was 0.00138. For the same compound, the solubility (mole fraction) (in acetone, 293.15 K) was 0.00161, the solubility (mole fraction) (in acetone, 298.15 K) was 0.00192 and the solubility (mole fraction) (in acetone, 303.15 K) was 0.00224. For the same compound, the solubility (mole fraction) (in ethanol, 278.15 K) was 2.66e-05, the solubility (mole fraction) (in ethanol, 283.15 K) was 3.65e-05 and the solubility (mole fraction) (in ethanol, 288.15 K) was 5.08e-05. For the same compound, the solubility (mole fraction) (in ethanol, 293.15 K) was 6.99e-05, the solubility (mole fraction) (in ethanol, 298.15 K) was 9.53e-05 and the solubility (mole fraction) (in ethanol, 303.15 K) was 0.000131. For the same compound, the solubility (mole fraction) (in methanol, 278.15 K) was 4.62e-05, the solubility (mole fraction) (in methanol, 283.15 K) was 6.41e-05 and the solubility (mole fraction) (in methanol, 288.15 K) was 8.62e-05. The solubility (mole fraction) (in methanol, 293.15 K) was 0.000118, the solubility (mole fraction) (in methanol, 298.15 K) was 0.00016 and the solubility (mole fraction) (in methanol, 303.15 K) was 0.000212.
